Legend:
LS9-ID1 [1] = experiment: Extractive fermentation with toxin, with or without hydrophobic solvent: FAME production (GC); type: cell-based, E. coli; conditions: 24 h, % of no-toxin control; for % FAME titer With C2:C18: ethyl oleate 1:3
Method: The production of fatty acid methyl and ethyl esters was analyzed by gas chromatography with flame ionization detector (GC-FID). The samples from fermentation broth were extracted with ethyl acetate in a ratio of 1:1 vol/vol. After strong vortexing, the samples were centrifuged and the organic phase was analyzed by gas chromatography (GC). The analysis conditions were as follows: instrument: Trace GC Ultra, Thermo Electron Corporation with Flame ionization detector (FID) detector; column: DB-1 (1% diphenyl siloxane; 99% dimethyl siloxane) CO1 UFM 1/0.1/5 01 DET from Thermo Electron Corporation, phase pH 5, FT: 0.4 μm, length 5 m, id: 0.1 mm; inlet conditions: 250° C. splitless, 3.8 min 1/25 split method used depending upon sample concentration with split flow of 75 ml/min; carrier gas, flow rate: Helium, 3.0 ml/min; block temperature: 330° C.; oven temperature: 0.5 minute hold at 50° C.; 100° C./minute to 330° C., 0.5 minute hold at 330° C.; detector temperature: 300° C.; injection volume: 2 μL; run time/flow rate: 6.3 min/3.0 ml/min (splitless method), 3.8 min/1.5 ml/min (split 1/25 method), 3.04 min/1.2 ml/min (split 1/50 method).
To determine the ability to perform extractive fermentations using products generated by the engineered strain of E. coli, LS9-ID1, to improve the performance of the fermentation in the presence of toxins, the fermentations were performed using a protocol similar to that described in example 1, above. Two sets of duplicate flasks were prepared with different concentrations of the toxin to be tested. One set served as the control, which included the toxin without the extractant, the hydrophobic solvent. In the second set, the extractant was added in a ratio of 1 volume of solvent per 3 volumes of fermentation broth. The flasks were then inoculated and incubated at 37° C. in agitated shakers. When the OD 600 reached a value of 1, the cultures were induced by the addition of 1 mM IPTG and 20 ml/L methanol. Cell growth and production of fatty acids methyl esters (FAME) was measured at 24 hours. In cultures without hydrophobic solvents (control), OD was measured directly in the fermentation broth. In flasks with solvent there was interference in OD measurement, and to eliminate this problem, the broth was centrifuged and the cell pellet was resuspended in the same volume of distilled water. The OD was measured in this suspension.
(§1) To analyze FAME production, 0.5 ml of broth was well mixed with 0.5 ml of ethylacetate. The organic phase was analyzed by gas chromatography. In the samples with solvents, additional dilutions were applied. All the toxins were tested with ethyl oleate (C2:C18 ester, or C2:C18) as a solvent representative of a biodiesel. Growth and FAME production are reported as percentage of the control condition (no toxin added). Each result is the average of duplicate experiments.

E. coli = conditions: minimal inhibitory concentration that completely inhibits growth, as reported in the literature; cited from earlier work
LS9-ID1 [2] = experiment: Extractive fermentation with toxin, with or without hydrophobic solvent: cell growth (OD600); type: cell-based, E. coli; conditions: for % Growth With C1:C12: methyl laureate as solvent; for % Growth With Hexadecane: hexadecane as solvent; for % Growth With Eicosadecene: eicosadecene as solvent; for % Growth With Biodiesel: commercial biodiesel as solvent
Method: Two sets of duplicate flasks were prepared with different concentrations of the toxin to be tested. One set served as the control, which included the toxin without the extractant, the hydrophobic solvent. In the second set, the extractant was added in a ratio of 1 volume of solvent per 3 volumes of fermentation broth. The flasks were then inoculated and incubated at 37° C. in agitated shakers. When the OD 600 reached a value of 1, the cultures were induced by the addition of 1 mM IPTG and 20 ml/L methanol. Cell growth and production of fatty acids methyl esters (FAME) was measured at 24 hours. In cultures without hydrophobic solvents (control), OD was measured directly in the fermentation broth. […] The OD was measured in this suspension.
as §1
The solvents methyl laureate (C1:C12 ester, or C1:C12), hexadecane (an alkane), eicosadecene (an alkene) and commercial biodiesel were tested.

LS9-ID1 [3] = experiment: Solvent pretreatment of toxin-spiked media before fermentation: cell growth; type: cell-based, E. coli; conditions: Table 12, toxin 1.5 g/L; for % Growth With Pretreatment: media extracted with methyl laureate 1:3 vol:vol, 37° C., 60 minutes, before inoculation; for % Growth No solvent: untreated media
Description: The raw materials can be treated to remove the toxin prior to the fermentation. For this purpose it will be possible to use the bioproduct after the initial steps of purification (centrifugal separation for example) but prior to any polishing or finishing step. The sugar containing raw material can be placed in contact with the solvent in a batch or in a continuous counter current mode. After extraction, the raw material (aqueous phase) can be separated from the solvent by decantation or centrifugation.
Tests were performed similarly to that described in the above Examples. Fermentation media was prepared and spiked with the desired concentration of the toxin. Methyl laureate was used as a solvent representative of biodiesel. It was added to the fermentation media in a 1:3 vol:vol ratio. Solvent and broth were thoroughly mixed at 37° C. for 60 minutes. The aqueous layer was decanted in a separatory funnel and collected. The resulting media was then inoculated with LS9-ID1 and growth was compared against similar media containing the toxin but which had not been treated.

LS9-ID1 [4] = experiment: Effect of common toxins on growth of the production strain (shake flasks, OD); type: cell-based, E. coli; conditions: for % Inhibition for LS9-ID1: toxin added at the reported MIC, growth by OD vs control without toxin
Method: A culture of a genetically engineered strain of E. coli, LS9-ID1, was transferred from a frozen stock and incubated in Luria-Bertani broth for approximately three hours. The culture was transferred to a defined mineral medium commonly used for E. coli, M9, buffered and supplemented with thiamine and trace minerals. The culture was further incubated and used to inoculate the same fermentation media with 50 g/L of carbohydrate (glucose, fructose, some pentoses).
The toxicity towards microbial strains of many of the compounds in hemicelluloses and cellulose hydrolysates has been examined individually. In the case of E. coli, the toxicity is related to the hydrophobicity of the toxin. The effects of several of these compounds on the growth of certain microbial strains were evaluated. The tests were done in shake flasks by following a protocol similar to that described in example 1, above, but without the induction and the addition of alcohols.
Other concentrations were also tested to determine the range where the effect was observed. The inhibition level was reported as the ratio between growth in the absence of the toxin (control) minus growth in the presence of the toxin and growth in the control.

[5] = toxin 1.5 g/L, ethyl oleate 1:3 vol solvent:broth, 24 h, % of no-toxin control
[6] = toxin 1.5 g/L, 24 h, % of no-toxin control (Tables 3-7)
[7] = toxin 3.0 g/L, ethyl oleate 1:3, 24 h, % of no-toxin control
[8] = toxin 3.0 g/L, 24 h, % of no-toxin control (Tables 3-7)

O=Cc1ccco1 [Furfural]
% FAME titer With C2:C18 (LS9-ID1 [1]; toxin 1.5 g/L): 72.7%
% FAME titer No solvent (LS9-ID1 [1]; toxin 1.5 g/L): 35.5%
% FAME titer With C2:C18 (LS9-ID1 [1]; toxin 3.0 g/L): 43.2%
% FAME titer No solvent (LS9-ID1 [1]; toxin 3.0 g/L): 4.5%
Reported MIC (E. coli): 3500 µg/mL
% Growth With C1:C12 (LS9-ID1 [2]; Table 8, toxin 3.0 g/L): 16.7%
% Growth No solvent (LS9-ID1 [2]; Table 8, toxin 3.0 g/L): 6.1%
% Growth With Hexadecane (LS9-ID1 [2]; Table 9, toxin 1.5 g/L): 38.5%
% Growth No solvent (LS9-ID1 [2]; Table 9, toxin 1.5 g/L): 17.7%
% Growth With Eicosadecene (LS9-ID1 [2]; Table 10, toxin 1.5 g/L): 56.7%
% Growth No solvent (LS9-ID1 [2]; Table 10, toxin 1.5 g/L): 33.3%
% Growth With Biodiesel (LS9-ID1 [2]; Table 11, toxin 1.5 g/L): 49.7%
% Growth No solvent (LS9-ID1 [2]; Table 11, toxin 1.5 g/L): 33.3%
% Growth With C2:C18 (LS9-ID1 [2]; [5]): 71.9%
% Growth No solvent (LS9-ID1 [2]; [6]): 40.0%
% Growth With C2:C18 (LS9-ID1 [2]; [7]): 53.6%
% Growth No solvent (LS9-ID1 [2]; [8]): 21.5%
% Growth With Pretreatment (LS9-ID1 [3]): 69.6%
% Growth No solvent (LS9-ID1 [3]): 33.3%
% of Growth inhibition (LS9-ID1 [4]; toxin 1.00 g/L): 0%
% of Growth inhibition (LS9-ID1 [4]; toxin 1.50 g/L): 60.0%
% of Growth inhibition (LS9-ID1 [4]; toxin 3.00 g/L): 18.5%
% Inhibition for LS9-ID1 (LS9-ID1 [4]): 100%

O=Cc1ccc(CO)o1 [5-Hydroxymethylfurfural]
Reported MIC (E. coli): 4000 µg/mL
% Growth With Hexadecane (LS9-ID1 [2]; Table 9, toxin 2.0 g/L): 57.1%
% Growth No solvent (LS9-ID1 [2]; Table 9, toxin 2.0 g/L): 39.8%
% Growth With Eicosadecene (LS9-ID1 [2]; Table 10, toxin 2.0 g/L): 55.3%
% Growth No solvent (LS9-ID1 [2]; Table 10, toxin 2.0 g/L): 51.8%
% Growth With C2:C18 (LS9-ID1 [2]; toxin 4.0 g/L, ethyl oleate 1:3, 24 h, % of no-toxin control): 20.9%
% Growth No solvent (LS9-ID1 [2]; toxin 4.0 g/L, 24 h, % of no-toxin control): 4.7%
% Growth With C2:C18 (LS9-ID1 [2]; toxin 8.0 g/L, ethyl oleate 1:3, 24 h, % of no-toxin control): 9.1%
% Growth No solvent (LS9-ID1 [2]; toxin 8.0 g/L, 24 h, % of no-toxin control): 2.2%
% Inhibition for LS9-ID1 (LS9-ID1 [4]): 100%

COc1ccccc1O [Guaiacol]
% FAME titer With C2:C18 (LS9-ID1 [1]; toxin 1.5 g/L): 100.5%
% FAME titer No solvent (LS9-ID1 [1]; toxin 1.5 g/L): 10.2%
% FAME titer With C2:C18 (LS9-ID1 [1]; toxin 3.0 g/L): 76.2%
% FAME titer No solvent (LS9-ID1 [1]; toxin 3.0 g/L): 2.3%
Reported MIC (E. coli): 3000 µg/mL
% Growth With C1:C12 (LS9-ID1 [2]; Table 8, toxin 1.5 g/L): 88.6%
% Growth No solvent (LS9-ID1 [2]; Table 8, toxin 1.5 g/L): 18.3%
% Growth With Hexadecane (LS9-ID1 [2]; Table 9, toxin 1.5 g/L): 41.8%
% Growth No solvent (LS9-ID1 [2]; Table 9, toxin 1.5 g/L): 12.7%
% Growth With Eicosadecene (LS9-ID1 [2]; Table 10, toxin 1.5 g/L): 31.8%
% Growth No solvent (LS9-ID1 [2]; Table 10, toxin 1.5 g/L): 15.8%
% Growth With C2:C18 (LS9-ID1 [2]; [5]): 93.7%
% Growth No solvent (LS9-ID1 [2]; [6]): 30.4%
% Growth With C2:C18 (LS9-ID1 [2]; [7]): 65.1%
% Growth No solvent (LS9-ID1 [2]; [8]): 12.5%
% of Growth inhibition (LS9-ID1 [4]; toxin 1.00 g/L): 0%
% of Growth inhibition (LS9-ID1 [4]; toxin 1.50 g/L): 41.7%
% of Growth inhibition (LS9-ID1 [4]; toxin 2.00 g/L): 83.3%
% of Growth inhibition (LS9-ID1 [4]; toxin 3.00 g/L): 100%
% Inhibition for LS9-ID1 (LS9-ID1 [4]): 100%

O=Cc1ccc(O)cc1 [4-hydroxybenzaldehyde]
% FAME titer With C2:C18 (LS9-ID1 [1]; toxin 0.63 g/L): 72.6%
% FAME titer No solvent (LS9-ID1 [1]; toxin 0.63 g/L): 54.3%
% FAME titer With C2:C18 (LS9-ID1 [1]; toxin 1.25 g/L): 31.8%
% FAME titer No solvent (LS9-ID1 [1]; toxin 1.25 g/L): 18.1%
Reported MIC (E. coli): 1250 µg/mL
% Growth With C1:C12 (LS9-ID1 [2]; Table 8, toxin 1.5 g/L): 33.0%
% Growth No solvent (LS9-ID1 [2]; Table 8, toxin 1.5 g/L): 20.2%
% Growth With Hexadecane (LS9-ID1 [2]; Table 9, toxin 1.5 g/L): 53.8%
% Growth No solvent (LS9-ID1 [2]; Table 9, toxin 1.5 g/L): 6.2%
% Growth With Eicosadecene (LS9-ID1 [2]; Table 10, toxin 1.5 g/L): 11.2%
% Growth No solvent (LS9-ID1 [2]; Table 10, toxin 1.5 g/L): 9.6%
% Growth With C2:C18 (LS9-ID1 [2]; toxin 0.63 g/L, ethyl oleate 1:3, 24 h, % of no-toxin control): 68.0%
% Growth No solvent (LS9-ID1 [2]; toxin 0.63 g/L, 24 h, % of no-toxin control): 70.0%
% Growth With C2:C18 (LS9-ID1 [2]; toxin 1.25 g/L, ethyl oleate 1:3, 24 h, % of no-toxin control): 60.0%
% Growth No solvent (LS9-ID1 [2]; toxin 1.25 g/L, 24 h, % of no-toxin control): 45.0%
% Inhibition for LS9-ID1 (LS9-ID1 [4]): 100%

Cc1ccc(O)c(O)c1 [4-Methyl catechol]
Reported MIC (E. coli): 1500 µg/mL
% Inhibition for LS9-ID1 (LS9-ID1 [4]): 25%

COc1cc(C=O)cc(OC)c1O [Syringaldehyde]
% FAME titer With C2:C18 (LS9-ID1 [1]; toxin 1.5 g/L): 94.8%
% FAME titer No solvent (LS9-ID1 [1]; toxin 1.5 g/L): 16.2%
% FAME titer With C2:C18 (LS9-ID1 [1]; toxin 3.0 g/L): 92.7%
% FAME titer No solvent (LS9-ID1 [1]; toxin 3.0 g/L): 2.0%
Reported MIC (E. coli): 2500 µg/mL
% Growth With Hexadecane (LS9-ID1 [2]; Table 9, toxin 1.5 g/L): 40.7%
% Growth No solvent (LS9-ID1 [2]; Table 9, toxin 1.5 g/L): 19.5%
% Growth With Eicosadecene (LS9-ID1 [2]; Table 10, toxin 1.5 g/L): 48.2%
% Growth No solvent (LS9-ID1 [2]; Table 10, toxin 1.5 g/L): 8.8%
% Growth With Biodiesel (LS9-ID1 [2]; Table 11, toxin 1.5 g/L): 39.2%
% Growth No solvent (LS9-ID1 [2]; Table 11, toxin 1.5 g/L): 8.8%
% Growth With C2:C18 (LS9-ID1 [2]; [5]): 41.0%
% Growth No solvent (LS9-ID1 [2]; [6]): 34.4%
% Growth With C2:C18 (LS9-ID1 [2]; [7]): 14.8%
% Growth No solvent (LS9-ID1 [2]; [8]): 6.6%
% Growth With Co-treatment (LS9-ID1 [3]; co-treatment): 61.2%
% Growth With Pretreatment (LS9-ID1 [3]): 83.3%
% Growth No solvent (LS9-ID1 [3]): 8.8%
% Inhibition for LS9-ID1 (LS9-ID1 [4]): 100%
